Series [1] deals with T1, hERG (human ether-a-go-go related gene potassium channel, KCNH2) (Homo sapiens, UniProt Q12809).
T1 construct: expressed in transfected cells; host or cells: HEK293
As to the kind of experiment: hERG channel whole-cell patch clamp (Ion Channel Activity Measurement). The series is classed as cell-based. The conditions noted are these: human, room temperature; for inhibition at 1 μM: pH 7.4, 1 μM test article; for inhibition at 10 μM: pH 7.4, 10 μM test article. Here is the method: HEK293 cell line expressing the human ERG (ether-a-go-go related gene) potassium channel (Potassium voltage-gated channel subfamily H member 2). cDNA strictly similar to GenBank accession number: NM_000238
(§1) Cells expressing channels were cultured in medium supplemented with 20% FBS in HAM'S F12 culture dish. Cells grew in a humidified incubator at 37° C. under 5% carbon dioxide. To passage cells, remove poor medium and rinse the cells once with PBS 1X. […] Place plate on a 37° C. warming incubator 5 min. As soon as cells are detached, add 5 ml of 37° C. complete medium. Draw cell suspension into a sterile pipet and homogenize cells gently to dissociate cells aggregates. Amplify or maintain the cells by seeding 2.5*105 cells in a 6 cm dish (final volume: 5 ml). To maintain electrophysiological performances, cell density must not exceed 80%. On the day before patch clamp experiment, 3*103 cells were seeded on coverslips in the 24-well plate and incubated at 37° C. in 5% carbon dioxide.
(§2) Glass pipette (BF150-86-10, Sutter Instruments) was made by puller (P97, Sutter Instruments). The glass pipette was manipulated using Micro-manipulator (Carm-C-S, MCI Instruments) under the microscope (AE31EF-INV, Motic). After touching the cell, a slight suction was applied to achieve high seal (GΩ). Fast capacitance (in pF) compensation was made after high seal was achieved; after achieving high seal, the membrane was broken, Cell capacitance (in pF) compensation was made from whole-cell capacitance compensation after the whole cell mode was achieved. No leak subtraction was made.
(§3) Cell was incubated with the test article for 5 minutes, or until the current reached a steady-state level. Multiple concentrations of test article were tested. The test articles were applied gradually from low to high concentration. The test and control solutions were flown into a recording chamber mounted on the stage of an inverted microscope via a gravity-fed solution delivery system. During the experiment, solutions were withdrawn from the recording chamber by vacuum aspiration. Each concentration was tested at multiple times. Each cell acted as its own control. All tests were performed at room temperature (23-25° C.).
hERG current was recorded under a holding potential at −80 mV and then depolarized to 30 mV for 2.5 seconds to activate the hERG channel. The peak tail currents were induced by a repolarizing pulse to −50 mV for 4 seconds. This voltage-clamp pulse protocol was performed continuously during the experiment. An interpulse interval of 10 seconds allowed recovery from inactivation. An interpulse of −50 mV test for 0.5 second before 30 mV depolarized step was included for leak current correction
(In general: hERG is a cardiac potassium channel; its block is linked to QT prolongation.)

Series [2] concerns the target T2, CaV1.2 (L-type voltage-dependent calcium channel; CACNA1C, CACNB2, CACNA2D1) (Homo sapiens, UniProt Q13936).
T2 construct: expressed in transfected cells; host or cells: CHO
The experiment in a line: CaV1.2 channel whole-cell patch clamp (Ion Channel Activity Measurement). Particulars: human, room temperature; for inhibition at 5 min, 1 μM: pH 7.4, 1 μM test article; for inhibition at 5 min, 10 μM: pH 7.4, 10 μM test article, read-out: CaV 1.2 10 μM (ion-channel inhibition). The format is cell-based. The procedure:
• CHO cell line stably expressing human calcium channel, voltage-dependent, L type, • CACNA1C: cDNA strictly similar to GenBank accession number: NM_000719 • CACNB2: cDNA strictly similar to GenBank accession number: NM_000724 • CACNA2D1: cDNA strictly similar to GenBank accession number: NM_000722 Iks Channel Cell Line:
as §1
Bath solution: 140 mM TEA-C1, 2 mM MgCl2·6H2O, 10 mM CaCl2, 10 mM HEPES, 5 mM D-glucose, pH=7.4 with TEA-OH. Pipette solution: 120 mM CsCl, 1 mM MgCl2·6H2O, 10 mM HEPES, 10 mM EGTA, 0.3 mM Na2-GTP, 4 mM Mg-ATP, pH=7.2 with CsOH.
as §2, §3
Cav1.2 current was recorded under a holding potential at −80 mV and then depolarized to +10 mV for 0.3 seconds. This protocol was repeated at 20 s intervals to observe the effect of test articles on the peak of Cav1.2 current.
(In general: Patch clamp records ionic current or voltage across a cell membrane.)

Where [3] appears, read: HEK293 cells expressing the human ERG potassium channel.

Our source for the inhibition values is patent US12187681B2 (Shanghai East Hospital, priority 2019, dated 2025).

T1 sequence (Q12809 whole entry): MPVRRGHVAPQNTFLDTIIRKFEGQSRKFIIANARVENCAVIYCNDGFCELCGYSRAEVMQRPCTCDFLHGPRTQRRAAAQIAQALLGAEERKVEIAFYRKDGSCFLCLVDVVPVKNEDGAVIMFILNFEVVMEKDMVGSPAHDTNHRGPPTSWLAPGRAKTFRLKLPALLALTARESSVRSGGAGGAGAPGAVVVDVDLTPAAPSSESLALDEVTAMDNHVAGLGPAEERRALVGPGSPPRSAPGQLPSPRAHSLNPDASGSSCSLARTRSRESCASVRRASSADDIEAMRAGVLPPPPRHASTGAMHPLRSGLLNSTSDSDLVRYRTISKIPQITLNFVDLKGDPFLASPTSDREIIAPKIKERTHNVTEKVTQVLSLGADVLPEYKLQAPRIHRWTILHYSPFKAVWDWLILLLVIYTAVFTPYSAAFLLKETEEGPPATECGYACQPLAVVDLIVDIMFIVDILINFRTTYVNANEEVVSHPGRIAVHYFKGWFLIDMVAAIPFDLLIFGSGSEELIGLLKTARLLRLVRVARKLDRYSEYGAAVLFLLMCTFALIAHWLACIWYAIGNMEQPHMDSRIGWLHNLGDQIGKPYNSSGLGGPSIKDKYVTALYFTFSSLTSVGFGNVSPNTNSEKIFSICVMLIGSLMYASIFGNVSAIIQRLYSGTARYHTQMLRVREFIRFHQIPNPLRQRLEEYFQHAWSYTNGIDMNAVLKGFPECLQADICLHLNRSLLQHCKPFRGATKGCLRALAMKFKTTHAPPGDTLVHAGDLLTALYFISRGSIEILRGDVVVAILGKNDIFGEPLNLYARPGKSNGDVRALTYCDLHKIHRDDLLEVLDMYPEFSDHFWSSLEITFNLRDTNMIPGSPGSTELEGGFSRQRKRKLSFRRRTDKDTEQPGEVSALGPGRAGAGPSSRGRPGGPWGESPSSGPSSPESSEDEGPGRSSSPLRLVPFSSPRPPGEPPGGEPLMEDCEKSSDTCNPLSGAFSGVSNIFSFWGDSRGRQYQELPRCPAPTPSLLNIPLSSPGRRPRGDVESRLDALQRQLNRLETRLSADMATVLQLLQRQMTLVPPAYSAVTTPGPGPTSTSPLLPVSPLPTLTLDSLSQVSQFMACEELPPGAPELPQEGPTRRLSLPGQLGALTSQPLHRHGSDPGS
T2 sequence (Q13936 1-2138 isoform Q13936-12): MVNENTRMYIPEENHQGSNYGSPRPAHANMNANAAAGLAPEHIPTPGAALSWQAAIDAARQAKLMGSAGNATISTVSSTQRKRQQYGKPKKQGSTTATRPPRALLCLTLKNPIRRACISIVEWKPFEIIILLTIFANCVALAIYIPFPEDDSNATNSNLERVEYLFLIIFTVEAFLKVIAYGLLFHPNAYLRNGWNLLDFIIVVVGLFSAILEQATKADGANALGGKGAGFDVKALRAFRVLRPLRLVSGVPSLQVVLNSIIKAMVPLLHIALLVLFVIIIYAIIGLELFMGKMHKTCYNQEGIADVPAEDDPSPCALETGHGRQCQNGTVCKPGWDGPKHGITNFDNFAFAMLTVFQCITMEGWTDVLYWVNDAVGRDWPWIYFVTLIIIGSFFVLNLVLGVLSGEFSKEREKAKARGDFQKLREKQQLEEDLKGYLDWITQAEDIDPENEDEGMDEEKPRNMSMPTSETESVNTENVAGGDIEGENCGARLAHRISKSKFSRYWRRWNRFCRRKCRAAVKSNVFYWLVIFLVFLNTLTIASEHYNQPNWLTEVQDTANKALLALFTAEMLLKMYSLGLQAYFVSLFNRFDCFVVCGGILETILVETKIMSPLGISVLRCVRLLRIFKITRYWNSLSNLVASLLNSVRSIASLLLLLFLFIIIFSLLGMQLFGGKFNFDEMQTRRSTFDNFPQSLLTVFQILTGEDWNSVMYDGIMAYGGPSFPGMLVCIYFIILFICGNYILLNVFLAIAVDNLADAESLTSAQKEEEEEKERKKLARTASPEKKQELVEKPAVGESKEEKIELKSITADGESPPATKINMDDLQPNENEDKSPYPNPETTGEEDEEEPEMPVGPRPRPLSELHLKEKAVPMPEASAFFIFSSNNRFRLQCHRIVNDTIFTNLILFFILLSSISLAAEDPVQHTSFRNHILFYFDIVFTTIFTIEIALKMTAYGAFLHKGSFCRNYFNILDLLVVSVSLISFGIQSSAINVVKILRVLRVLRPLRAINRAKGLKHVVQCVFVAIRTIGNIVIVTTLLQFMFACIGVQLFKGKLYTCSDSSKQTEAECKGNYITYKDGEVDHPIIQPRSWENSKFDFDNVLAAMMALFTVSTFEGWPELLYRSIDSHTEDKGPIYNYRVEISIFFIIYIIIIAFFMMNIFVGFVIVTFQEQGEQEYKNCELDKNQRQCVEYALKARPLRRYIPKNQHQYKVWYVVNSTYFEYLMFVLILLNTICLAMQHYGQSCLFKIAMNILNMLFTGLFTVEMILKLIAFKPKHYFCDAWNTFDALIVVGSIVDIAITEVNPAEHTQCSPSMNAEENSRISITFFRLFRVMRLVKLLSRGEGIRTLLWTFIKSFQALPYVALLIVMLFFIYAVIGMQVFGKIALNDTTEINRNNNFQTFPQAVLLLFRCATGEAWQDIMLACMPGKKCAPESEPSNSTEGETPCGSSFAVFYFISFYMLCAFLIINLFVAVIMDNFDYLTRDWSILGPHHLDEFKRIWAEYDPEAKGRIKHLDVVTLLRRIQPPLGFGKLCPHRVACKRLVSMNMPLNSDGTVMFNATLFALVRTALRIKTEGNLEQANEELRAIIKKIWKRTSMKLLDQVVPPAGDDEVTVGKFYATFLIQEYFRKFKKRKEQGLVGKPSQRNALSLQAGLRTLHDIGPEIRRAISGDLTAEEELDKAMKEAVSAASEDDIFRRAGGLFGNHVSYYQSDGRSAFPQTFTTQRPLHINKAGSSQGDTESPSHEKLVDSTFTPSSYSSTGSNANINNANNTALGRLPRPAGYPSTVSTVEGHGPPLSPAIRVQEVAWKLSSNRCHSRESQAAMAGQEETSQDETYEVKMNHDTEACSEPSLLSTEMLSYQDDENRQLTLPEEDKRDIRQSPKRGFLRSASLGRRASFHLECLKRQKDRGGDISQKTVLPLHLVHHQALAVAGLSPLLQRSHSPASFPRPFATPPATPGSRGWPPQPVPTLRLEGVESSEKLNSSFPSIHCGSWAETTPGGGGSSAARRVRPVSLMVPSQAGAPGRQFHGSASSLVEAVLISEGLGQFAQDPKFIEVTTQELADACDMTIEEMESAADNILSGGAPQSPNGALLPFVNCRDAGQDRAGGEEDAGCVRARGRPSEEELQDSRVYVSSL
T2 sequence (Q08289 1-605 isoform Q08289-2 partner): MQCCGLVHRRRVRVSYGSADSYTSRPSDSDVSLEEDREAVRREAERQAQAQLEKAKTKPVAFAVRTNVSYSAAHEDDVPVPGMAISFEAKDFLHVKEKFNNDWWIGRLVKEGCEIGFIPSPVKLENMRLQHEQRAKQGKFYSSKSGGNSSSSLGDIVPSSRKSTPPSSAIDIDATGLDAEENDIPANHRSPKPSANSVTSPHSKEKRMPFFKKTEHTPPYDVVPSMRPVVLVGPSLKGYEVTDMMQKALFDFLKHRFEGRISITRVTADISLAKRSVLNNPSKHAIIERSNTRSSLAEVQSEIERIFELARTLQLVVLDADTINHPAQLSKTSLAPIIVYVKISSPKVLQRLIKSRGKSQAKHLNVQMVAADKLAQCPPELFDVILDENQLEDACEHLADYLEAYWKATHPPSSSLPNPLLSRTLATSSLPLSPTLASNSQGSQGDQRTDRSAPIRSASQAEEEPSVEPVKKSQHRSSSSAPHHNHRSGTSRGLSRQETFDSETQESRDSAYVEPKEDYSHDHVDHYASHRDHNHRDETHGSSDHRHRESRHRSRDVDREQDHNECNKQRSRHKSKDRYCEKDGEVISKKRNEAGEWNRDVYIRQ
T2 sequence (P54289 25-1091 isoform P54289-2 partner limits assumed): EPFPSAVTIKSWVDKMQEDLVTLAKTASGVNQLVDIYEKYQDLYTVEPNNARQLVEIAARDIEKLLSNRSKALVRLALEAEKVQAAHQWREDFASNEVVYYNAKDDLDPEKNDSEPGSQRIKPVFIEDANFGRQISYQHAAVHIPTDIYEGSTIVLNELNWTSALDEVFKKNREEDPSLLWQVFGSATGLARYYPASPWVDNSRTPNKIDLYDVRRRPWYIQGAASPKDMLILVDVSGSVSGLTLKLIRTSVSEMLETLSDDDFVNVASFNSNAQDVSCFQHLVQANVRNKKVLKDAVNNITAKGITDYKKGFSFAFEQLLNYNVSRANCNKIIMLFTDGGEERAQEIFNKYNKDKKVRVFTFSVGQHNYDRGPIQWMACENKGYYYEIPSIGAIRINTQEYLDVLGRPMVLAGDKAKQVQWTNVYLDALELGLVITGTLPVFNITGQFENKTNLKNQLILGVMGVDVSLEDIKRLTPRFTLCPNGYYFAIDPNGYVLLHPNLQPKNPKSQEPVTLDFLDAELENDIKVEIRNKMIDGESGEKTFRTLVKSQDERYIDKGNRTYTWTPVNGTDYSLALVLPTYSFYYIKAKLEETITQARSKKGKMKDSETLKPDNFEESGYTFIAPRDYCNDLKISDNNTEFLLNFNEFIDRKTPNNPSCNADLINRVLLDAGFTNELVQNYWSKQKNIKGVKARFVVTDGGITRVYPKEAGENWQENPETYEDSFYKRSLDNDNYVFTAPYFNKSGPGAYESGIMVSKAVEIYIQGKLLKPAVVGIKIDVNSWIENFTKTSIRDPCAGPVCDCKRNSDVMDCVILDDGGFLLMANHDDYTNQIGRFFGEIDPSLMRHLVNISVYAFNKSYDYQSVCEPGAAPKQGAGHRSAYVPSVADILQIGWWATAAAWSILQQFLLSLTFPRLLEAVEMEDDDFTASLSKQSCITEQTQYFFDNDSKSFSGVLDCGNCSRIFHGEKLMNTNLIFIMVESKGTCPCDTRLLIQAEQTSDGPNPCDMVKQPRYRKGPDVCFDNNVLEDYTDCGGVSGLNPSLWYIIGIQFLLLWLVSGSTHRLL
T2 sequence (P54289 957-1103 partner limits assumed): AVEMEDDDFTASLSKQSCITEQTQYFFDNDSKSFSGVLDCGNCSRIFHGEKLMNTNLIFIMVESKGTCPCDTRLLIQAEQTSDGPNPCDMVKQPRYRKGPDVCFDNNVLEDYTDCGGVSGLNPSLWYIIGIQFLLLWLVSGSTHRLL

The inhibition is the relative decrease from the control value, in per cent. In series [1] (setting [3]), `O=C(c1c(O)ccc2ccccc12)c1c(O)ccc2ccccc12` [Compound A007, bis(2-hydroxynaphthalen-1-yl)methanone] came in with an inhibition at 1 μM of less than 25% and an inhibition at 10 μM of 25 to 50%. In series [2], the inhibition at 5 min, 1 μM is less than 25% and the inhibition at 5 min, 10 μM fell in the range of 50 to 75%.
In series [1] (setting [3]), `CC(c1c(O)ccc2ccccc12)c1c(O)ccc2ccccc12` [Compound A012, 1,1′-(ethane-1,1-diyl) bis (naphthalen-2-ol)] gave an inhibition at 1 μM of less than 25% and an inhibition at 10 μM of 25 to 50%. In series [2], the inhibition at 5 min, 1 μM was less than 25% and the inhibition at 5 min, 10 μM was 75 to 100%.
In series [1] (setting [3]), `Cc1ccc(O)c(Cc2c(O)ccc(C)c2C)c1C` [Compound A017, 2,2′-methylenebis(3,4-dimethylphenol)] gave an inhibition at 1 μM of less than 25% and an inhibition at 10 μM of 25 to 50%. In addition, in series [2], the inhibition at 5 min, 1 μM was less than 25% and the inhibition at 5 min, 10 μM was 25 to 50%.
In series [1] (setting [3]), `Nc1ccc2ccccc2c1Cc1c(O)ccc2ccccc12` [Compound A021, 1-((2-aminonaphthalen-1-yl)methyl)naphthalen-2-ol] yielded an inhibition at 1 μM of less than 25% and an inhibition at 10 μM of less than 25%. In series [2], the inhibition at 5 min, 1 μM was less than 25% and the inhibition at 5 min, 10 μM is less than 25%.
In the case of `Nc1ccc2ccccc2c1Cc1c(N)ccc2ccccc12` [Compound A022, 1,1′-methylenebis(naphthalen-2-amine)], in series [1], the inhibition at 1 μM is less than 25% and the inhibition at 10 μM is 50 to 75%. Besides, in series [2], the inhibition at 5 min, 1 μM is less than 25% and the inhibition at 5 min, 10 μM is 50 to 75%.
In the case of `Nc1cc(Cc2c(N)ccc3ccccc23)c2ccccc2c1` [Compound A022-2, 4-((2-aminonaphthalen-1-yl)methyl)naphthalen-2-amine], in series [1] (setting [3]), the inhibition at 1 μM is less than 25% and the inhibition at 10 μM is 75 to 100%. In series [2], the inhibition at 5 min, 1 μM is less than 25% and the inhibition at 5 min, 10 μM was 25 to 50%.
As for `CS(=O)(=O)Nc1ccc2ccccc2c1Cc1c(NS(C)(=O)=O)ccc2ccccc12` [Compound A024, N,N′-(methylenebis(naphthalene-1,2-diyl))dimethanesulfonamide], in series [2], the inhibition at 5 min, 1 μM is less than 25% and the inhibition at 5 min, 10 μM is less than 25%.
For the molecule `CS(=O)(=O)Nc1cc(Cc2c(NS(C)(=O)=O)ccc3ccccc23)c2ccccc2c1` [Compound A024-2, N-(1-((3-(methylsulfonamido)naphthalen-1-yl)methyl)naphthalen-2-yl)methanesulfonamide], in series [1] (setting [3]), the inhibition at 1 μM is less than 25% and the inhibition at 10 μM lay in the range of 50 to 75%. Further, in series [2], the inhibition at 5 min, 1 μM was less than 25% and the inhibition at 5 min, 10 μM was in the range of 25 to 50%.
In the case of `CS(=O)(=O)Nc1cc2ccccc2cc1Cc1c(NS(C)(=O)=O)ccc2ccccc12` [Compound A024-3, N-(3-((2-(methylsulfonamido)naphthalen-1-yl)methyl)naphthalen-2-yl)methanesulfonamide], in series [2], the inhibition at 5 min, 1 μM was less than 25% and the inhibition at 5 min, 10 μM was 25 to 50%.
In series [1] (setting [3]), `CS(=O)(=O)Nc1ccc2ccccc2c1Cc1c(O)ccc2ccccc12` [Compound A025, N-(1-((2-hydroxynaphthalen-1-yl)methyl)naphthalen-2-yl)methanesulfonamide] returned an inhibition at 1 μM of less than 25% and an inhibition at 10 μM of 25 to 50%. Further, in series [2], the inhibition at 5 min, 1 μM was less than 25% and the inhibition at 5 min, 10 μM is 25 to 50%.
As for `Oc1ccc2ccccc2c1Cc1c(O)ncc2ccccc12` [Compound A027, 4-((2-hydroxynaphthalen-1-yl)methyl)isoquinolin-3-ol], in series [1] (setting [3]), the inhibition at 1 μM is less than 25% and the inhibition at 10 μM is less than 25%. Further, in series [2], the inhibition at 5 min, 1 μM was less than 25% and the inhibition at 5 min, 10 μM was in the range of 25 to 50%.
In series [1] (setting [3]), `Cc1cc2ccccc2c(Cc2c(O)c(C)cc3ccccc23)c1O` [Compound A032, 1,1′-methylenebis(3-methylnaphthalen-2-ol)] displayed an inhibition at 1 μM of less than 25% and an inhibition at 10 μM of less than 25%. In series [2], the inhibition at 5 min, 1 μM is less than 25% and the inhibition at 5 min, 10 μM is less than 25%.
In series [1] (setting [3]), `Cc1cc2ccccc2c(O)c1Cc1c(C)cc2ccccc2c1O` [Compound A035, 2,2′-methylenebis(3-methylnaphthalen-1-ol)] had an inhibition at 1 μM of less than 25% and an inhibition at 10 μM of 50 to 75%. In series [2], the inhibition at 5 min, 1 μM was less than 25% and the inhibition at 5 min, 10 μM fell in the range of 75 to 100%.
In series [1] (setting [3]), `O=C(Nc1c(O)ccc2ccccc12)c1c(O)ccc2ccccc12` [Compound A044, 2-hydroxy-N-(2-hydroxynaphthalen-1-yl)-1-naphthamide] gave an inhibition at 1 μM of less than 25% and an inhibition at 10 μM of 25 to 50%. Further, in series [2], the inhibition at 5 min, 1 μM is less than 25% and the inhibition at 5 min, 10 μM was less than 25%.
In series [1] (setting [3]), `Oc1c(Cl)cc2ccccc2c1Cc1c(O)c(Cl)cc2ccccc12` [Compound A046, 1,1′-methylenebis(3-chloronaphthalen-2-ol)] displayed an inhibition at 1 μM of less than 25% and an inhibition at 10 μM of less than 25%. Moreover, in series [2], the inhibition at 5 min, 1 μM is less than 25% and the inhibition at 5 min, 10 μM was less than 25%.
Regarding `CC(C)(O)c1cc2ccccc2c(Cc2c(O)c(C(C)(C)O)cc3ccccc23)c1O` [Compound A047, 1,1′-methylenebis(3-(2-hydroxypropan-2-yl)naphthalen-2-ol)], in series [1] (setting [3]), the inhibition at 1 μM was less than 25%. Moreover, in series [2], the inhibition at 5 min, 1 μM was less than 25% and the inhibition at 5 min, 10 μM lay in the range of 50 to 75%.
In series [1] (setting [3]), `Oc1c(F)cc2ccccc2c1Cc1c(O)c(F)cc2ccccc12` [Compound A049, 1,1′-methylenebis(3-fluoronaphthalen-2-ol)] yielded an inhibition at 1 μM of less than 25% and an inhibition at 10 μM of 50 to 75%. In series [2], the inhibition at 5 min, 1 μM was less than 25% and the inhibition at 5 min, 10 μM was 50 to 75%.
For the molecule `COc1cc2ccccc2c(Cc2c(O)c(OC)cc3ccccc23)c1O` [Compound A050, 1,1′-methylenebis(3-methoxynaphthalen-2-ol)], in series [1] (setting [3]), the inhibition at 1 μM is less than 25% and the inhibition at 10 μM is less than 25%. Further, in series [2], the inhibition at 5 min, 1 μM was less than 25% and the inhibition at 5 min, 10 μM was less than 25%.
Turning to `Oc1ccc2ccccc2c1Cn1c(O)nc2ccccc21` [Compound A056, 1-((2-hydroxynaphthalen-1-yl)methyl)-1H-benzo[d]imidazol-2-ol], in series [1] (setting [3]), the inhibition at 1 μM is less than 25% and the inhibition at 10 μM was less than 25%. Besides, in series [2], the inhibition at 5 min, 1 μM is less than 25% and the inhibition at 5 min, 10 μM fell in the range of 25 to 50%.
Take `O=C1Cc2ccccc2N1Cc1c(O)ccc2ccccc12` [Compound A057, 1-((2-hydroxynaphthalen-1-yl)methyl)indolin-2-one]: in series [1] (setting [3]), the inhibition at 1 μM is less than 25% and the inhibition at 10 μM is less than 25%. Besides, in series [2], the inhibition at 5 min, 1 μM was less than 25% and the inhibition at 5 min, 10 μM was less than 25%.
In the case of `CCN(CC)CCOc1ccc2ccccc2c1Cc1c(OCCN(CC)CC)ccc2ccccc12` [Compound A103, 2,2′-((methylenebis(naphthalene-1,2-diyl))bis(oxy))bis(N,N-diethylethan-1-amine) formic acid], in series [2], the inhibition at 5 min, 1 μM was less than 25% and the inhibition at 5 min, 10 μM was less than 25%.
For `CC(C)Oc1ccc2ccccc2c1Cc1c(OCCN)ccc2ccccc12` [Compound A246, 2-((1-((2-isopropoxynaphthalen-1-yl)methyl)naphthalen-2-yl)oxy)ethan-1-amine], the inhibition at 1 μM in series [1] (setting [3]) lay in the range of 25 to 50%.
